Numbers after ± are expanded uncertainties.
Key:
[1] = Crystal; DTA
[2] = Molar enthalpy of transition or fusion; details: Crystal; DSC

Normal melting temperature [1]: 170.52 ± 1.1 °C
Molar enthalpy of transition or fusion [2]: 10 ± 0.263 kcal/mol
SMILES: Cc1nc2n(c(=O)c1CCN1CCC(c3noc4cc(F)ccc34)CC1)CCCC2 [risperidone]

Reference: the NIST ThermoML archive (doi:10.1016/j.tca.2013.06.032)
